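Results reflect a 48-hour exposure of cells in 96-well plates to compound at five concentrations. GI50 marks 50% less growth.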 The source made the active and inactive calls. Cut-off read from the data, not from the text of the source: active = GI50 up to about 1.1 µM and inactive = higher.
What was measured:
Assay in all cases: NCI-60 cell line screen, 48 h
A498 = test system: A498
COLO 205 = test system: COLO 205
DU-145 = test system: DU-145
HOP-62 = test system: HOP-62
K562 = test system: K562
MDA-N = test system: MDA-N
NCI-H23 = test system: NCI-H23
NCI-H460 = test system: NCI-H460
PC-3 = test system: PC-3
SF-295 = test system: SF-295
SF-539 = test system: SF-539
SK-MEL-28 = test system: SK-MEL-28
SK-MEL-2 = test system: SK-MEL-2
SK-MEL-5 = test system: SK-MEL-5
SK-OV-3 = test system: SK-OV-3
UACC-62 = test system: UACC-62
786-0 = test system: 786-0
ACHN = test system: ACHN
NCI-H522 = test system: NCI-H522

Measured: GI50

Cc1ccc(/N=N/NCCCCN/N=N/c2ccc(C)cc2)cc1
inactive: A498 54.6 µM | COLO 205 35.4 µM | DU-145 32 µM | HOP-62 47.9 µM | K562 > 100 µM | MDA-N 16.5 µM | NCI-H23 9.25 µM | NCI-H460 12.5 µM | PC-3 4.22 µM | SF-295 8.22 µM | SF-539 > 100 µM | SK-MEL-28 > 100 µM | SK-MEL-2 > 100 µM | SK-MEL-5 23.4 µM | SK-OV-3 > 100 µM | UACC-62 > 100 µM

COC(=O)c1ccccc1N1C(=O)Cc2ccccc2C1=O
inactive: 786-0 66.1 µM | ACHN > 100 µM | COLO 205 > 100 µM | K562 > 100 µM | NCI-H23 > 100 µM | SF-295 45.4 µM | SF-539 75.3 µM | SK-MEL-28 > 100 µM | SK-MEL-2 > 100 µM | SK-MEL-5 > 100 µM | SK-OV-3 42.9 µM | UACC-62 72.6 µM

N[C@@H]1c2c(Br)sc(Br)c2C(=O)[C@H]1Br
inactive: 786-0 23.1 µM | A498 35.2 µM | ACHN 20.6 µM | COLO 205 1.88 µM | DU-145 > 60.3 µM | HOP-62 50.4 µM | K562 > 28.3 µM | NCI-H23 24.8 µM | NCI-H460 57.1 µM | NCI-H522 14.7 µM | PC-3 37.2 µM | SF-295 > 70.6 µM | SF-539 > 63.1 µM | SK-MEL-28 28.5 µM | SK-MEL-2 > 100 µM | SK-MEL-5 2.6 µM | SK-OV-3 > 100 µM | UACC-62 20.5 µM

COc1cc(/C=C2\N=C(c3ccccc3)N(/N=C/c3cc4cc(C)ccc4nc3Cl)C2=O)cc(OC)c1OC
inactive: 786-0 60.4 µM | A498 28.1 µM | ACHN 34.2 µM | COLO 205 24.5 µM | DU-145 30.4 µM | HOP-62 58.7 µM | K562 35 µM | MDA-N 21 µM | NCI-H460 29.4 µM | PC-3 18.1 µM | SF-295 44.2 µM | SF-539 23.4 µM | SK-MEL-28 91.6 µM | SK-MEL-2 17.9 µM | SK-MEL-5 37.9 µM | SK-OV-3 59.8 µM | UACC-62 32.1 µM

O=C1NC(N/N=C/c2ccccc2)=N/C1=C\c1ccco1
inactive: 786-0 22.3 µM | A498 > 100 µM | ACHN 21.9 µM | COLO 205 57.4 µM | DU-145 32.9 µM | HOP-62 19.8 µM | NCI-H23 26.4 µM | NCI-H460 20.7 µM | NCI-H522 26.1 µM | PC-3 33.9 µM | SF-295 33.1 µM | SK-MEL-28 51.8 µM | SK-MEL-2 25.9 µM | SK-MEL-5 45.9 µM | SK-OV-3 54.2 µM | UACC-62 28.7 µM

O=C(Cn1c2c(c3ccccc31)CCCC2)N1CCCCC1
inactive: 786-0 > 100 µM | ACHN > 100 µM | COLO 205 > 100 µM | HOP-62 > 100 µM | MDA-N > 100 µM | NCI-H23 > 100 µM | NCI-H460 > 100 µM | PC-3 > 100 µM | SF-295 > 100 µM | SF-539 86.7 µM | SK-MEL-28 > 100 µM | SK-MEL-2 > 100 µM | SK-MEL-5 > 100 µM | SK-OV-3 > 100 µM | UACC-62 > 100 µM

[O-][S+](Nc1ccccc1)c1ccc(-c2ccccc2)cc1 (stereo not drawn)
inactive: 786-0 > 100 µM | ACHN > 100 µM | COLO 205 72.3 µM | DU-145 > 100 µM | HOP-62 > 100 µM | K562 > 100 µM | MDA-N > 100 µM | NCI-H23 > 100 µM | NCI-H460 > 100 µM | NCI-H522 > 100 µM | SF-295 55.8 µM | SF-539 > 100 µM | SK-MEL-28 > 100 µM | SK-MEL-5 > 100 µM | UACC-62 47.4 µM

Nc1ncnc2c1ncn2Cc1cccc(CCl)c1
inactive: 786-0 14.4 µM | A498 15.2 µM | ACHN 14.8 µM | DU-145 13.8 µM | HOP-62 12.7 µM | K562 21.9 µM | NCI-H23 12.6 µM | NCI-H460 14.2 µM | NCI-H522 15.1 µM | PC-3 14.7 µM | SF-295 15.9 µM | SF-539 14.8 µM | SK-MEL-28 19.8 µM | SK-MEL-2 15 µM | SK-MEL-5 16.1 µM | UACC-62 12.8 µM

O=C(CC(=O)N(C(=O)c1ccccc1)c1ccc(Cl)cc1)N/N=C\c1cc(/N=N/c2ccccc2Cl)ccc1O
inactive: 786-0 38.1 µM | A498 31.3 µM | ACHN > 100 µM | COLO 205 > 100 µM | DU-145 > 100 µM | HOP-62 39.5 µM | K562 17.3 µM | MDA-N > 100 µM | NCI-H23 > 100 µM | NCI-H460 > 100 µM | PC-3 > 100 µM | SF-295 29.9 µM | SF-539 34.8 µM | SK-MEL-28 > 100 µM | SK-OV-3 52.1 µM | UACC-62 70.5 µM

Clc1ccc2c(c1)-c1c3c(nn1-c1ccccc1)-c1ccccc1SC3O2 (stereo not drawn)
inactive: 786-0 > 100 µM | A498 > 100 µM | ACHN > 100 µM | COLO 205 > 100 µM | HOP-62 > 100 µM | K562 75.3 µM | NCI-H23 > 100 µM | NCI-H460 > 100 µM | NCI-H522 29 µM | SF-295 > 100 µM | SF-539 > 100 µM | SK-MEL-28 > 100 µM | SK-MEL-2 > 100 µM | SK-MEL-5 > 100 µM | SK-OV-3 > 100 µM

NC1CCC2(O)c3ccccc3C2C1 (stereo not drawn)
inactive: 786-0 > 100 µM | ACHN > 100 µM | COLO 205 > 100 µM | HOP-62 > 100 µM | K562 > 100 µM | NCI-H23 > 100 µM | NCI-H460 > 100 µM | NCI-H522 > 100 µM | SF-295 > 100 µM | SK-MEL-28 > 100 µM | SK-MEL-2 > 100 µM | SK-MEL-5 > 100 µM | SK-OV-3 > 100 µM | UACC-62 > 100 µM

CC(=O)OC(Cn1cncn1)(Cn1cncn1)c1ccc(Cl)cc1Cl
inactive: 786-0 > 100 µM | A498 > 100 µM | COLO 205 > 100 µM | DU-145 > 100 µM | HOP-62 > 100 µM | K562 > 100 µM | NCI-H460 > 100 µM | NCI-H522 > 100 µM | PC-3 > 100 µM | SF-295 > 100 µM | SF-539 > 100 µM | SK-MEL-28 > 100 µM | SK-MEL-2 > 100 µM | SK-MEL-5 > 100 µM | SK-OV-3 > 100 µM

CCC/C=C/C=C/C1CC(O)C(O)C(=O)C1CO (stereo not drawn)
inactive: 786-0 > 100 µM | ACHN > 100 µM | COLO 205 > 100 µM | DU-145 > 100 µM | K562 > 100 µM | MDA-N > 100 µM | NCI-H23 > 100 µM | NCI-H460 > 100 µM | NCI-H522 55.2 µM | PC-3 51.1 µM | SF-295 > 100 µM | SF-539 > 100 µM | SK-MEL-28 > 100 µM | SK-MEL-2 > 100 µM | SK-MEL-5 > 100 µM | SK-OV-3 > 100 µM | UACC-62 > 100 µM

O=C(c1cccnc1)N1N=C(c2ccc3c(c2)OCO3)CC1(O)c1cc(F)c(Cl)cc1Cl (stereo not drawn)
inactive: 786-0 18.6 µM | ACHN 17.7 µM | COLO 205 15.1 µM | DU-145 20.9 µM | HOP-62 18 µM | K562 27.9 µM | MDA-N 29.3 µM | NCI-H23 24.9 µM | NCI-H460 17.4 µM | NCI-H522 17 µM | PC-3 21.5 µM | SF-295 19.1 µM | SF-539 16.7 µM | SK-MEL-28 25.5 µM | SK-MEL-2 20.7 µM | SK-MEL-5 15 µM | SK-OV-3 27.9 µM

O=C(c1cccs1)N(C(=O)N1CCCCC1)c1ccccc1
inactive: 786-0 > 100 µM | A498 > 100 µM | ACHN > 100 µM | COLO 205 > 100 µM | DU-145 > 100 µM | K562 > 100 µM | MDA-N > 100 µM | NCI-H23 > 100 µM | PC-3 52.1 µM | SF-295 > 100 µM | SF-539 > 100 µM | SK-MEL-28 > 100 µM | SK-MEL-2 > 100 µM | SK-MEL-5 > 100 µM | SK-OV-3 > 100 µM | UACC-62 > 100 µM

O=S(=O)(O)C1CCC(O)C2NCCCC21 (stereo not drawn)
inactive: 786-0 > 100 µM | A498 > 100 µM | ACHN > 100 µM | COLO 205 > 100 µM | DU-145 > 100 µM | HOP-62 > 100 µM | K562 > 100 µM | NCI-H460 > 100 µM | NCI-H522 > 100 µM | PC-3 > 100 µM | SF-295 > 100 µM | SF-539 > 100 µM | SK-MEL-28 > 100 µM | SK-MEL-2 > 100 µM | SK-MEL-5 > 100 µM | SK-OV-3 > 100 µM | UACC-62 > 100 µM

O=C(O)c1ccccn1 [2-PICOLINIC ACID]
inactive: 786-0 > 100 µM | A498 > 100 µM | ACHN > 100 µM | COLO 205 > 100 µM | HOP-62 > 100 µM | K562 > 100 µM | MDA-N > 100 µM | NCI-H23 > 100 µM | NCI-H460 > 100 µM | PC-3 > 100 µM | SF-295 > 100 µM | SF-539 > 100 µM | SK-MEL-28 > 100 µM | SK-MEL-2 > 100 µM | SK-MEL-5 > 100 µM | UACC-62 > 100 µM

From ChEMBL document CHEMBL1201862, “PubChem BioAssay data set” (2004)
